According to PMC11310081, “Deep-learning-enabled antibiotic discovery through molecular de-extinction” (Nature Biomedical Engineering, 2024):
Values after ≈ are worked out from the molar mass of the structure shown. “Also recorded” adds a separate entry of the source. Peptide text beside a SMILES is read from it.

Assays:
[1] = test system: HEK293T cells; details: 24 h
In short: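 5,000 cells/well seeded a day ahead in DMEM with 10% FBS, then treated with peptides; viability by MTT (0.5 mg/ml, 4 h, 37 °C), formazan in acidic isopropanol read at 570 nm. Concentration causing 50% lysis from non-linear regression; three biological replicates, two technical each.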

[2] = test system: A. baumannii ATCC 19606; experiment: Skin abscess infection mouse model; assay type: in vivo, CD-1 mice; details: for bacterial count, skin abscess (Panel 6b): CD-1 mice; for Anti-infective activity in skin abscess model, in words: single dose at MIC, compared with untreated control and polymyxin B, n = 6
Experimental: A. baumannii ATCC 19606 cells were grown in LB medium to an OD600 = 0.5. Cells were washed twice with sterile phosphate-buffered saline (PBS) (pH 7.4, 13,000 r.p.m. for 2 min) and resuspended to a final concentration of 10^6 (A. baumannii cells) colony-forming units per millilitre (c.f.u. ml^−1). Six-week-old female CD-1 mice from Charles River (stock number 18679700-022) were anaesthetized with isoflurane, and their backs were sterilized and shaved. A superficial linear skin abrasion was made with a needle to damage the stratum corneum and upper layer of the epidermis. An aliquot of 20 μl containing the bacterial load resuspended in PBS was inoculated over the scratched area. Two hours after the infection, peptides diluted in water at their MIC value were administered to the infected area, and the untreated mice were inoculated with the same volume of deionized water. Mice were euthanized, and the area of scarified skin was excised 2 days and 4 days post infection, homogenized using a bead beater for 20 min (25 Hz) and then serially diluted tenfold for quantification of colony-forming units. This quantitative method was used as it has been established to accurately reflect the number of bacteria present in a given infected area. MacConkey agar plates were used as A. baumannii colonies appear purple in this medium and can easily be distinguished from other strains. The experiments were performed with six mice per group. All experiments were performed blindly, and no animal subjects were excluded from the analysis. The skin abscess infection mouse model was approved by the University Laboratory Animal Resources from the University of Pennsylvania (protocol 806763). Statistical significance was determined using one-way analysis of variance (ANOVA) followed by Dunnett’s test in log10-transformed data to mitigate the effect of outliers; P values are presented for each group, with all groups being compared to the untreated control group.

[3] = test system: 11 clinically relevant bacterial pathogens; assay type: cell-based; details: for Active or Inactive: Supplementary Dataset 2, against the 11 pathogens tested; for MIC (lowest MIC value in the antimicrobial activity assays): Supplementary Table 17, lowest MIC among the strains tested
In short: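 Optical density at 600 nm served as the growth read-out after broth microdilution exposure to peptides spanning 1–64 μmol l^−1. Assays used logarithmic-phase bacteria and were run as three biological replicates.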

[4] = A. baumannii ATCC 19606, day 2, replicate 1
[5] = A. baumannii ATCC 19606, day 2, replicate 2
[6] = A. baumannii ATCC 19606, day 2, replicate 3
[7] = A. baumannii ATCC 19606, day 2, replicate 4
[8] = A. baumannii ATCC 19606, day 2, replicate 5
[9] = A. baumannii ATCC 19606, day 2, replicate 6
[10] = A. baumannii ATCC 19606, day 4, replicate 1
[11] = A. baumannii ATCC 19606, day 4, replicate 2
[12] = A. baumannii ATCC 19606, day 4, replicate 3
[13] = A. baumannii ATCC 19606, day 4, replicate 4
[14] = A. baumannii ATCC 19606, day 4, replicate 5
[15] = A. baumannii ATCC 19606, day 4, replicate 6

| MIC (lowest MIC value in the antimicrobial activity assays) [3] [µM] | SMILES | CC50 [1] [µM] | bacterial count, skin abscess (Panel 6b) [2, 4] | bacterial count, skin abscess (Panel 6b) [2, 5] | bacterial count, skin abscess (Panel 6b) [2, 6] | bacterial count, skin abscess (Panel 6b) [2, 7] | bacterial count, skin abscess (Panel 6b) [2, 8] | bacterial count, skin abscess (Panel 6b) [2, 9] | bacterial count, skin abscess (Panel 6b) [2, 10] | bacterial count, skin abscess (Panel 6b) [2, 11] | bacterial count, skin abscess (Panel 6b) [2, 12] | bacterial count, skin abscess (Panel 6b) [2, 13] | bacterial count, skin abscess (Panel 6b) [2, 14] | bacterial count, skin abscess (Panel 6b) [2, 15] | Anti-infective activity in skin abscess model, in words [2] | Active or Inactive [3] | TI (therapeutic index) [1] |
| --- | --- | --- | --- | --- | --- | --- | --- | --- | --- | --- | --- | --- | --- | --- | --- | --- | --- |
|  | CC(C)C[C@H](NC(=O)CNC(=O)[C@H](CCCNC(=N)N)NC(=O)[C@H](CCCCN)NC(=O)[C@H](CCCNC(=N)N)NC(=O)[C@@H](N)CCCCN)C(=O)N[C@@H](CCCCN)C(=O)N[C@@H](CC(C)C)C(=O)N[C@@H](C)C(=O)N[C@H](C(=O)N[C@@H](C)C(=O)N[C@@H](CC(C)C)C(=O)N[C@@H](CO)C(=O)N[C@@H](CC(C)C)C(=O)N[C@@H](CC(N)=O)C(=O)N[C@@H](CC(N)=O)C(=O)N[C@@H](CCCCN)C(=O)N[C@@H](Cc1ccccc1)C(=O)O)[C@@H](C)O [Mylodonin-2] (H-KRKRGLKLATALSLNNKF-OH; N-terminus and C-terminus assumed) | > 128 | 200000 | 200000 | 600000 | 200000 | 400000 | 400000 | 2000 | 2000 | 60000 | 80000 | 200 | 200 | comparable to that of the widely used antibiotic polymyxin B; also recorded: inhibited the proliferation of the infection for up to 4 days after treatment; also recorded: cleared the infection in some of the mice | Active |  |
| 8 (≈ 13.6 µg/mL) | CC[C@H](C)[C@H](NC(=O)[C@@H](N)CC(C)C)C(=O)N[C@H](C(=O)N[C@@H](CS)C(=O)N[C@@H](Cc1ccccc1)C(=O)N[C@@H](Cc1ccccc1)C(=O)N[C@@H](CCCNC(=N)N)C(=O)N[C@@H](CCC(N)=O)C(=O)N[C@@H](CC(C)C)C(=O)N[C@@H](CCCCN)C(=O)N[C@@H](Cc1ccccc1)C(=O)N[C@@H](Cc1c[nH]cn1)C(=O)N[C@@H](Cc1ccccc1)C(=O)O)C(C)C [Megalocerin-1] (H-LIVCFFRQLKFHF-OH; N-terminus and C-terminus assumed) | > 128 | 800000 | 2000000 | 2000000 | 800000 | 600000 | 1000000 | 1200000 | 1000000 | 400000 | 400000 | 1000000 | 400000 | inhibited the proliferation of the infection for up to 4 days after treatment | Active | > 16 |
| 32 (≈ 97.9 µg/mL) | CC[C@H](C)[C@H](NC(=O)[C@H](CO)NC(=O)[C@H](CCCNC(=N)N)NC(=O)[C@H](C)NC(=O)[C@H](Cc1c[nH]cn1)NC(=O)[C@H](CC(C)C)NC(=O)[C@H](CS)NC(=O)[C@H](C)NC(=O)[C@@H](N)CCCNC(=N)N)C(=O)N[C@@H](C)C(=O)N[C@@H](CCCNC(=N)N)C(=O)N[C@@H](CC(C)C)C(=O)N[C@@H](Cc1c[nH]cn1)C(=O)N[C@@H](CCCCN)C(=O)N[C@@H](CCCNC(=N)N)C(=O)N[C@@H](Cc1c[nH]c2ccccc12)C(=O)N[C@@H](CCCNC(=N)N)C(=O)N1CCC[C@H]1C(=O)N[C@H](C(=O)N[C@@H](Cc1c[nH]cn1)C(=O)N[C@@H](CCC(N)=O)C(=O)NCC(=O)N[C@@H](CC(C)C)C(=O)NCC(=O)N[C@@H](CC(C)C)C(=O)N[C@@H](CCCCN)C(=O)O)C(C)C [Mammuthusin-2] (H-RACLHARSIARLHKRWRPVHQGLGLK-OH; N-terminus and C-terminus assumed) | > 128 | 600000 | 400000 | 800000 | 200000 | 4000000 | 1e+007 | 200000 | 200000 | 800000 | 1200000 | 20000 | 20000 | inhibited the proliferation of the infection for up to 4 days after treatment | Active | > 4 |

| SMILES | MIC (lowest MIC value in the antimicrobial activity assays) [3] [µM] | CC50 [1] [µM] | bacterial count, skin abscess (Panel 6b) [2, 4] | bacterial count, skin abscess (Panel 6b) [2, 5] | bacterial count, skin abscess (Panel 6b) [2, 6] | bacterial count, skin abscess (Panel 6b) [2, 7] | bacterial count, skin abscess (Panel 6b) [2, 8] | bacterial count, skin abscess (Panel 6b) [2, 9] | bacterial count, skin abscess (Panel 6b) [2, 10] | bacterial count, skin abscess (Panel 6b) [2, 11] | bacterial count, skin abscess (Panel 6b) [2, 12] | bacterial count, skin abscess (Panel 6b) [2, 13] | bacterial count, skin abscess (Panel 6b) [2, 14] | bacterial count, skin abscess (Panel 6b) [2, 15] | Anti-infective activity in skin abscess model, in words [2] | Active or Inactive [3] | TI (therapeutic index) [1] |
| --- | --- | --- | --- | --- | --- | --- | --- | --- | --- | --- | --- | --- | --- | --- | --- | --- | --- |
| CC[C@H](C)[C@H](N)C(=O)N[C@@H](Cc1ccccc1)C(=O)N[C@@H](CC(C)C)C(=O)N[C@@H](Cc1c[nH]cn1)C(=O)N[C@@H](CC(C)C)C(=O)N[C@@H](CCCCN)C(=O)N[C@H](C(=O)N[C@@H](CC(C)C)C(=O)N[C@@H](CCCCN)C(=O)N[C@H](C(=O)N[C@H](C(=O)N[C@@H](CCCNC(=N)N)C(=O)N[C@@H](CC(C)C)C(=O)N[C@@H](CC(C)C)C(=O)O)[C@@H](C)CC)[C@@H](C)CC)[C@@H](C)CC [Elephasin-2] (H-IFLHLKILKIIRLL-OH; N-terminus and C-terminus assumed) | 1 (≈ 1.73 µg/mL) | > 128 | 200000 | 200000 | 8000000 | 4000000 | 200000 | 400000 | 40000 | 20000 | 800000 | 800000 | 200 | 200 | comparable to that of the widely used antibiotic polymyxin B; also recorded: inhibited the proliferation of the infection for up to 4 days after treatment; also recorded: cleared the infection in some of the mice | Active |  |
